# Reference: US5849690A, “Anti-aggregatory peptides” (SmithKline Beecham Corporation, priority 1992, dated 1998)
# “Also recorded” adds a separate entry of the source. Residues, ends and D or L forms follow the SMILES beside them.
# How the values were obtained:
# [1] = target: T1, Platelet rich plasma, PRP (Canis lupus familiaris, UniProt A0A8I3N5G5+A0A8I3PMU9); experiment: Inhibition of platelet aggregation, PRP/ADP; format: cell-based; conditions: dog platelet rich plasma, 2 μM ADP, peptide added 3 min. prior to agonist; read-out: Antiaggregatory Activity IC50, μM PRP/ADP
# T1 sequence (A0A8I3N5G5 1-1047): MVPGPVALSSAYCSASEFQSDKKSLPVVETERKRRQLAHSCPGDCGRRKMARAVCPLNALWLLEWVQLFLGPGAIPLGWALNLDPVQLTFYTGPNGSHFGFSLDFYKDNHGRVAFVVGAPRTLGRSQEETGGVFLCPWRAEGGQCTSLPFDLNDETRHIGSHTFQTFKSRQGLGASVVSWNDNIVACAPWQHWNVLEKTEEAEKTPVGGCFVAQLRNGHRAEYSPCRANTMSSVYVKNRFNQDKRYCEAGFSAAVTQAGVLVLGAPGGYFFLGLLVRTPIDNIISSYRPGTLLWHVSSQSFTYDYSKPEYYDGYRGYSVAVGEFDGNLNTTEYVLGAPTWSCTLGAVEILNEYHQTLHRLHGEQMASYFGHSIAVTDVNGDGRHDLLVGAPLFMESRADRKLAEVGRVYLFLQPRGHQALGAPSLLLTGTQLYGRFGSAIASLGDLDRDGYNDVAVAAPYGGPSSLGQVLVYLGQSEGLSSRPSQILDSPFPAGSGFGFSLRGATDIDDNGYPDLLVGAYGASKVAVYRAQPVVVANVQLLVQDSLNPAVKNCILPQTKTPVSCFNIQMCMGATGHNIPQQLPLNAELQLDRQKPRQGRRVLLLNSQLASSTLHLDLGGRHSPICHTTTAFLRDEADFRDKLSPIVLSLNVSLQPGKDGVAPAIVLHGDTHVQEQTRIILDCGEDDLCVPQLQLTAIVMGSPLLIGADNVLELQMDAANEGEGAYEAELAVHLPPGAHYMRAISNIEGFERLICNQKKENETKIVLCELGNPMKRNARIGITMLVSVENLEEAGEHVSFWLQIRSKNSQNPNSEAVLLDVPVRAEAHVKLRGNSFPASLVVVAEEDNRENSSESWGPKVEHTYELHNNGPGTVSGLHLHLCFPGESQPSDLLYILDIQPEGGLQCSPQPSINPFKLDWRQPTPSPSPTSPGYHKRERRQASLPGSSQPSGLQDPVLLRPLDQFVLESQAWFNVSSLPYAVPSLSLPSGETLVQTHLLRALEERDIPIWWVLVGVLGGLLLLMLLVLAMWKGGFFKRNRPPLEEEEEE
# T1 sequence (A0A8I3PMU9 1-919): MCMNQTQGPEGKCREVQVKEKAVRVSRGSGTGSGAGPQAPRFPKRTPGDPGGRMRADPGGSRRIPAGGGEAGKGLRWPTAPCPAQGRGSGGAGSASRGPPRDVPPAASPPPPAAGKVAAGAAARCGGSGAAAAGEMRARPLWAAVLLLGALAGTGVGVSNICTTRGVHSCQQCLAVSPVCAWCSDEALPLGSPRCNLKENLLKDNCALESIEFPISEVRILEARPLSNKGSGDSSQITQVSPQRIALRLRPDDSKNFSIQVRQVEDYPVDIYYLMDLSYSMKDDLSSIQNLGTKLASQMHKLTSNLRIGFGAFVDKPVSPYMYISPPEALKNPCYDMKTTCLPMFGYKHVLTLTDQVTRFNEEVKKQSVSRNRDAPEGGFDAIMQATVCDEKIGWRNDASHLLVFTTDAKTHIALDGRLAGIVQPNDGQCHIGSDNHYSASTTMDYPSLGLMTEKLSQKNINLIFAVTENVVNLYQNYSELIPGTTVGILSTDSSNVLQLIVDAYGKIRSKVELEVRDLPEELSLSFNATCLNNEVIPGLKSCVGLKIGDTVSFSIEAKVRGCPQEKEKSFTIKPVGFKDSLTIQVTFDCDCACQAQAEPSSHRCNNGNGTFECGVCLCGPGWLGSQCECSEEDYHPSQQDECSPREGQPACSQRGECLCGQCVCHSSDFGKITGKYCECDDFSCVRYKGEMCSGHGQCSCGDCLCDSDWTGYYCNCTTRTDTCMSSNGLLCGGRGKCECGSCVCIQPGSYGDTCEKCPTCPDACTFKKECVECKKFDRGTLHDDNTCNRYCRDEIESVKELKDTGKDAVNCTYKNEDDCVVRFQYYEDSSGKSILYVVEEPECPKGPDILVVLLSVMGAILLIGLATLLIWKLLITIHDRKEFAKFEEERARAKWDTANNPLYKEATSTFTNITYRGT
# Experimental: (§1) Blood was collected (citrated to prevent coagulation) from, naive, adult mongrel dogs. Platelet rich plasma, PRP, was prepared by centrifugation at 150×g for 10 min. at room temperature. Washed platelets were prepared by centrifuging PRP at 800×g for 10 min. The cell pellet thus obtained was washed twice in Tyrode's buffer (pH 6.5) without Ca^2+ and resuspended in Tyrode's buffer (pH 7.4) containing 1.8 mM Ca^2+ at […]. Peptides were added 3 min. prior to the agonist in all assays of platelet aggregation. Final agonist concentrations were 0.1 unit/ml thrombin and 2 μM ADP (Sigma). Aggregation was monitored in a Chrono-Log Lumi-Aggregometer. Light transmittance 5 min. after addition of the agonist was used to calculate percent aggregation according to the formula % aggregation=[(90-CR).div.(90-10)]×100, where CR is the chart reading, 90 is the baseline, and 10 is the PRP blank reading. IC50 's were determined by plotting [% inhibition of aggregation] vs. [concentration of peptide]. Peptides were assayed at 200 μM and diluted sequentially by a factor of 2 to establish a suitable dose response curve.
# Washed platelets = target: T2, Washed platelets (Canis lupus familiaris, UniProt A0A8I3N5G5+A0A8I3PMU9); experiment: Inhibition of platelet aggregation, WP/Thrombin; format: cell-based; conditions: dog washed platelets, 0.1 unit/ml thrombin, peptide added 3 min. prior to agonist; read-out: Antiaggregatory Activity IC50, μM WP/Thrombin
# T2 sequence (A0A8I3N5G5 1-1047): T1 sequence (A0A8I3N5G5 1-1047)
# T2 sequence (A0A8I3PMU9 1-919): T1 sequence (A0A8I3PMU9 1-919)
# Experimental: as §1
# [2] = Stability of the peptide to plasma proteases (3 hrs. incubation in PRP before agonist); format: in vitro ADME, dog; conditions: peptide incubated 3 hrs. in PRP prior to addition of agonist
# Experimental: as §1
# To assess the stability of the peptide to plasma proteases, the peptides were incubated for 3 hrs. (rather than 3 min.) in the PRP prior to addition of the agonist.
# preformed human clot = experiment: Human clot lysis assay (tPA induced fibrinolysis); format: biochemical
# Experimental: The human clot lysis assay is used to assess the in vitro effect of anti-fibrotic peptide on tPA induced fibrinolysis. Outdated, citrated, human plasma from the American Red Cross is spun for 20 min. at 1300X g to remove remaining blood cells. A solution consisting of plasma, ^125 I-fibrinogen, calcium chloride and thrombin is added to 6 mm tissue culture plates and incubated 15 to 18 hrs. at 37° C. The next morning, each well is rinsed to release the clot. Clots are washed twice with Tris-buffered saline, containing heparin and albumin. Each clot is then added to 1.0 ml of the same plasma used to prepare the clot. tPA is added to tubes over a concentration range of 7 to 250 ng/ml (final concentration). Tubes are incubated at 37° C. with gentle rotation for 4 hrs. At the end of 4 hrs., a 25 μl aliquot is removed and counted to measure ^125 I released from the clot. All samples are run in triplicate.
# [3] = system: platelet aggregation/thrombus formation; experiment: In vivo inhibition of thrombus formation, coronary thrombosis model in anesthetized dogs; set-up: species or system dog
# Experimental: Briefly, a small Lexan® cylinder is placed around a mechanically damaged left circumflex coronary artery to produce a fixed partial obstruction of 80-90%. Under these conditions, platelets adhere to the exposed subendothelial collagen and aggregate at the obstructed site. Aggregation is assessed as a gradual reduction in blood flow over 2-3 min. until the thrombus is mechanically dislodged from the lumen of the obstructed vessel and coronary blood flow is restored. This process is allowed to repeat itself every 2-3 min. through the control period of the experiment.
Compound,IC50 [1] [µM],IC50 (Washed platelets) [µM],% Activity after 3 hr. in PRP [2] [%],further results
"CC(=O)N(C)[C@@H](CCCNC(=N)N)C(=O)NCC(=O)N[C@@H](CC(=O)O)C(=O)N[C@@H](CO)C(N)=O [Example 26, N^α -Ac-N a-MeArg-Gly-Asp-Ser-NH2] (HELM PEPTIDE1{[ac].[meR].G.D.S.[am]}$$$$V2.0)",7.4,28.2,100,
"CC(=O)N[C@@H](CCCNC(=N)N)C(=O)NCC(=O)N[C@@H](CC(=O)O)C(=O)N[C@@H](CO)C(N)=O [Example 27, N^α -Ac-Arg-Gly-Asp-Ser-NH2] (Ac-RGDS-NH2)",,,,"effect upon tPA promoted human clot lysis in vitro (preformed human clot; 1 mM peptide, listed as Ac-RGDS-NH2): no interaction; also recorded: no effect; inhibition of thrombus formation (mean coronary blood flow) ([3]; 400 mM at 0.013 ml/min.): partial inhibition with prolongation of time to complete blockage; inhibition of thrombus formation (mean coronary blood flow) ([3]; 400 mM at 0.026 ml/min. infusion, listed as Ac-RGDS-NH2): moderate inhibition with spontaneous sloughing off of the thrombus; also recorded: moderate inhibition with spontaneous sloughing off of thrombi; inhibition of thrombus formation (mean coronary blood flow) ([3]; 400 mM at 0.052 ml/min. infusion rate): complete inhibition of thrombus formation; inhibition of thrombus formation (coronary blood flow) ([3]; coronary infusion 400 mM at 0.1 ml/min, listed as Ac-RGDS-NH2): complete inhibition of thrombus formation"
"CC(=O)N[C@H]1CSSC[C@@H](C(N)=O)NC(=O)[C@H](CO)NC(=O)[C@H](CC(=O)O)NC(=O)CNC(=O)[C@H](CCCN=C(N)N)NC1=O [Example 3, N^α -Ac-Cyclo(S,S) Cys-Arg-Gly-Asp-Ser-Cys-NH2] (HELM PEPTIDE1{[ac].C.R.G.D.S.C.[am]}$PEPTIDE1,PEPTIDE1,2:R3-7:R3$$$V2.0)",,54.3,,
"tPA(MT2N3): tissue plasminogen activator (tPA), fibrinolytic agent used to induce clot lysis",,,,"EC50 of tPA-induced clot lysis, control period (preformed human clot; % clot lysis at 4 hours, tPA alone): 31.5 ± 9.9 µg/mL"
"CC(=O)N[C@@H](CCCN=C(N)N)C(=O)NCC(=O)N[C@@H](CC(=O)O)C(=O)N[C@@H](CO)C(N)=O [Example 27, N^α -Ac-Arg-Gly-Asp-Ser-NH2] (Ac-RGDS-NH2)",,,0,effect of infusion upon coronary arterial blood pressure ([3]; 400 mM at 0.1 ml/min): no effect
N^α -Ac-Arg-Gly-Asp-Tyr-NH2 [Example 28],102,137,98,
"CC(=O)N(C)[C@@H](CCCNC(=N)N)C(=O)NCC(=O)N[C@@H](CC(=O)O)C(=O)N[C@@H](Cc1ccccc1)C(N)=O [Example 35, N^α -Ac-MeArg-Gly-Asp-Phe-NH2] (HELM PEPTIDE1{[ac].[meR].G.D.F.[am]}$$$$V2.0)",10.8,,100,
"CC(=O)N[C@H]1CSSC2(CCCCC2)C(C(N)=O)NC(=O)[C@H](CC(=O)O)NC(=O)CNC(=O)[C@H](CCCNC(=N)N)NC1=O (stereo partly drawn) [Example 2, N^α -Ac-Cyclo(S,S) Cys-Arg-Gly-Asp-(D,L) APmp-NH2] (HELM PEPTIDE1{[ac].C.R.G.D.[O=C(C(N[*:1])C1(S[*:3])CCCCC1)[*:2]].[am]}$PEPTIDE1,PEPTIDE1,2:R3-6:R3$$$V2.0)",1.53,,100,
"CC(=O)N[C@H]1CSSC[C@@H](C(N)=O)NC(=O)[C@H](CO)NC(=O)[C@H](CC(=O)O)NC(=O)CNC(=O)[C@H](CCCNC(=N)N)N(C)C1=O [Example 1, N^α -Ac-Cyclo(S,S) Cys-MeArg-Gly-Asp-Ser-Cys-NH2] (HELM PEPTIDE1{[ac].C.[meR].G.D.S.C.[am]}$PEPTIDE1,PEPTIDE1,2:R3-7:R3$$$V2.0)",1.1,,100,
"CC(=O)N[C@@H](CCCNC(=N)N)C(=O)NCC(=O)N[C@@H](CC(=O)O)C(=O)N[C@@H](Cc1ccc2ccccc2c1)C(N)=O [Example 32, N^α -Ac-Arg-Gly-Asp-Nal-NH2] (HELM PEPTIDE1{[ac].R.G.D.[O=C([C@H](Cc1ccc2ccccc2c1)N[*:1])[*:2]].[am]}$$$$V2.0)",40.5,,100,
"CC(=O)N[C@@H](CCCN=C(N)N)C(=O)NCC(=O)N[C@@H](CC(=O)O)C(N)=O [Example 29, N^α -Ac-Arg-Gly-Asp-NH2]",138,356,,
